Test results taken from paper PMC9933483, “Tail-Approach-Based Design and Synthesis of Coumarin-Monoterpenes as Carbonic Anhydrase Inhibitors and Anticancer Agents” (ACS Omega, 2023).
Each block holds one compound with its values, some of them ahead of it.

What was measured:
MCF-7 cell line = experiment: Cell cytotoxicity, MTT assay; assay type: cell-based, human; settings: Homo sapiens, MCF7, 24 h
PC-3 cell line = experiment: Cell cytotoxicity, MTT assay; assay type: cell-based; settings: Homo sapiens, 24 h
HEK293T cell line = experiment: Cell cytotoxicity, MTT assay; assay type: cell-based; settings: Homo sapiens, HEK-293T, 24 h, healthy cell line
HT-29 cell line = experiment: Cell cytotoxicity, MTT assay; assay type: cell-based, human; settings: Homo sapiens, HT-29; MTT, 24 h
hCA IX = hCA IX (Homo sapiens, UniProt Q16790); experiment: biochemical

SMILES: Cc1ccc(C(C)C)c(OCc2cn(CCOc3ccc4ccc(=O)oc4c3)nn2)c1 [Compound 12, 7-(2-(4-((2-Isopropyl-5-methylphenoxy)methyl)-1H-1,2,3-triazol-1-yl)ethoxy)-2H-chromen-2-one]
IC50 (MCF-7 cell line): 45.7 ± 14.5 µM
IC50 (PC-3 cell line): 50.2 ± 23.7 µM
IC50 (HEK293T cell line): 107 ± 19.5 µM
IC50 (HT-29 cell line): 48.5 ± 9.01 µM

SMILES: Cc1ccc(C(C)C)c(OCc2cn(CCCOc3ccc4ccc(=O)oc4c3)nn2)c1 [Compound 13, 7-(3-(4-((2-Isopropyl-5-methylphenoxy)methyl)-1H-1,2,3-triazol-1-yl)propoxy)-2H-chromen-2-one]
IC50 (HT-29 cell line): 48.5 ± 8.73 µM

SMILES: Cc1ccc(C(C)C)c(OCc2cn(CCCCCCOc3ccc4ccc(=O)oc4c3)nn2)c1 [Compound 15, 7-((6-(4-((2-Isopropyl-5-methylphenoxy)methyl)-1H-1,2,3-triazol-1-yl)hexyl)oxy)-2H-chromen-2-one]
IC50 (MCF-7 cell line): 143 ± 58.5 µM
IC50 (PC-3 cell line): 48.4 ± 14.4 µM
IC50 (HEK293T cell line): 59.7 ± 12.3 µM
IC50 (HT-29 cell line): 30.1 ± 10.2 µM

SMILES: Cc1ccc(C(C)C)c(OCc2cn(CCCCCCCOc3ccc4ccc(=O)oc4c3)nn2)c1 [Compound 16, 7-((7-(4-((2-Isopropyl-5-methylphenoxy)methyl)-1H-1,2,3-triazol-1-yl)heptyl)oxy)-2H-chromen-2-one]
IC50 (MCF-7 cell line): 73.1 ± 55.4 µM
IC50 (PC-3 cell line): 167 ± 30.1 µM
IC50 (HEK293T cell line): 142 ± 49.6 µM
IC50 (HT-29 cell line): 21.6 ± 8.31 µM

Ki (hCA IX): 0.213 µM
SMILES: Cc1ccc(C(C)C)c(OCc2cn(CCCCCCCCCOc3ccc4ccc(=O)oc4c3)nn2)c1 [Compound 17, 7-((9-(4-((2-Isopropyl-5-methylphenoxy)methyl)-1H-1,2,3-triazol-1-yl)nonyl)oxy)-2H-chromen-2-one]
IC50 (MCF-7 cell line): > 200 µM
IC50 (PC-3 cell line): 12.5 ± 4.4 µM
IC50 (HEK293T cell line): > 200 µM
IC50 (HT-29 cell line): 28.5 ± 8.9 µM

SMILES: Cc1ccc(C(C)C)cc1OCc1cn(CCOc2ccc3ccc(=O)oc3c2)nn1 [Compound 20, 7-(2-(4-((5-Isopropyl-2-methylphenoxy)methyl)-1H-1,2,3-triazol-1-yl)ethoxy)-2H-chromen-2-one]
IC50 (HT-29 cell line): 25.9 ± 7.94 µM

SMILES: Cc1ccc(C(C)C)cc1OCc1cn(CCCOc2ccc3ccc(=O)oc3c2)nn1 [Compound 21, 7-(3-(4-((5-Isopropyl-2-methylphenoxy)methyl)-1H-1,2,3-triazol-1-yl)propoxy)-2H-chromen-2-one]
IC50 (HT-29 cell line): 39.4 ± 15.8 µM

SMILES: Cc1ccc(C(C)C)cc1OCc1cn(CCCCOc2ccc3ccc(=O)oc3c2)nn1 [Compound 22, 7-(4-(4-((5-Isopropyl-2-methylphenoxy)methyl)-1H-1,2,3-triazol-1-yl)butoxy)-2H-chromen-2-one]
IC50 (HT-29 cell line): 37.4 ± 12.1 µM

SMILES: C=CCc1ccc(OCc2cn(CCCCCCOc3ccc4ccc(=O)oc4c3)nn2)c(OC)c1 [Compound 31, 7-((6-(4-((4-Allyl-2-methoxyphenoxy)methyl)-1H-1,2,3-triazol-1-yl)hexyl)oxy)-2H-chromen-2-one]
IC50 (MCF-7 cell line): 16.8 ± 9.71 µM
IC50 (PC-3 cell line): > 200 µM
IC50 (HEK293T cell line): 15.2 ± 1.06 µM
IC50 (HT-29 cell line): 45.2 ± 13.1 µM

SMILES: CC1CCC(C(C)C)C(OCc2cn(CCCCCCOc3ccc4ccc(=O)oc4c3)nn2)C1 (stereo not drawn) [Compound 39, 7-((6-(4-(((2-Isopropyl-5-methylcyclohexyl)oxy)methyl)-1H-1,2,3-triazol-1-yl)hexyl)oxy)-2H-chromen-2-one]
IC50 (HT-29 cell line): 65.6 ± 24.2 µM

SMILES: CC1CCC(C(C)C)C(OCc2cn(CCCCCCCOc3ccc4ccc(=O)oc4c3)nn2)C1 (stereo not drawn) [Compound 40, 7-((7-(4-(((2-Isopropyl-5-methylcyclohexyl)oxy)methyl)-1H-1,2,3-triazol-1-yl)heptyl)oxy)-2H-chromen-2-one]
IC50 (HT-29 cell line): 54.8 ± 19.1 µM

Ki (hCA IX): 0.204 µM
SMILES: CC1CCC(C(C)C)C(OCc2cn(CCCCCCCCCOc3ccc4ccc(=O)oc4c3)nn2)C1 (stereo not drawn) [Compound 41, 7-((9-(4-(((2-Isopropyl-5-methylcyclohexyl)oxy)methyl)-1H-1,2,3-triazol-1-yl)nonyl)oxy)-2H-chromen-2-one]
IC50 (HT-29 cell line): 44.7 ± 15.1 µM

Ki (hCA IX): 0.0019 µM
SMILES: CC1CCC(C(C)C)C(OCc2cn(CCCCCCCCCCOc3ccc4ccc(=O)oc4c3)nn2)C1 (stereo not drawn) [Compound 42, 7-((10-(4-(((2-Isopropyl-5-methylcyclohexyl)oxy)methyl)-1H-1,2,3-triazol-1-yl)decyl)oxy)-2H-chromen-2-one]
IC50 (MCF-7 cell line): > 200 µM
IC50 (PC-3 cell line): 39.7 ± 17 µM
IC50 (HEK293T cell line): 83.2 ± 28.1 µM
IC50 (HT-29 cell line): 32.9 ± 8.54 µM

Ki (hCA IX): 0.192 µM
SMILES: Cc1ccc(C(C)C)c(OCCCOc2ccc3ccc(=O)oc3c2)c1 [Compound 45, 7-(3-(2-Isopropyl-5-methylphenoxy)propoxy)-2H-chromen-2-one]
IC50 (MCF-7 cell line): > 200 µM
IC50 (PC-3 cell line): > 80 µM
IC50 (HEK293T cell line): 43.3 ± 5.43 µM
IC50 (HT-29 cell line): > 200 µM

SMILES: Cc1ccc(C(C)C)c(OCCCCOc2ccc3ccc(=O)oc3c2)c1 [Compound 46, 7-(4-(2-Isopropyl-5-methylphenoxy)butoxy)-2H-chromen-2-one]
IC50 (MCF-7 cell line): > 200 µM
IC50 (PC-3 cell line): > 80 µM
IC50 (HEK293T cell line): > 80 µM
Ki (hCA IX): 0.0824 µM
IC50 (HT-29 cell line): > 80 µM

Ki (hCA IX): 0.117 µM
SMILES: Cc1ccc(C(C)C)c(OCCCCCCOc2ccc3ccc(=O)oc3c2)c1 [Compound 47, 7-((6-(2-Isopropyl-5-methylphenoxy)hexyl)oxy)-2H-chromen-2-one]
IC50 (MCF-7 cell line): 18.4 ± 2.63 µM
IC50 (PC-3 cell line): 29.1 ± 6.02 µM
IC50 (HEK293T cell line): > 80 µM
IC50 (HT-29 cell line): > 80 µM

Ki (hCA IX): 0.0368 µM
SMILES: Cc1ccc(C(C)C)c(OCCCCCCCOc2ccc3ccc(=O)oc3c2)c1 [Compound 48, 7-((7-(2-Isopropyl-5-methylphenoxy)heptyl)oxy)-2H-chromen-2-one]
IC50 (HT-29 cell line): > 200 µM

Ki (hCA IX): 0.123 µM
SMILES: Cc1ccc(C(C)C)c(OCCCCCCCCCOc2ccc3ccc(=O)oc3c2)c1 [Compound 49, 7-((9-(2-Isopropyl-5-methylphenoxy)nonyl)oxy)-2H-chromen-2-one]
IC50 (HT-29 cell line): > 200 µM

SMILES: Cc1ccc(C(C)C)c(OCCCCCCCCCCOc2ccc3ccc(=O)oc3c2)c1 [Compound 50, 7-((10-(2-Isopropyl-5-methylphenoxy)decyl)oxy)-2H-chromen-2-one]
IC50 (HT-29 cell line): > 200 µM

SMILES: Cc1ccc(C(C)C)cc1OCCCCCCCOc1ccc2ccc(=O)oc2c1 [Compound 56, 7-((7-(5-Isopropyl-2-methylphenoxy)heptyl)oxy)-2H-chromen-2-one]
IC50 (MCF-7 cell line): 8.26 ± 1.28 µM
IC50 (PC-3 cell line): 24.4 ± 4.12 µM
IC50 (HEK293T cell line): > 80 µM
IC50 (HT-29 cell line): > 80 µM

SMILES: Cc1ccc(C(C)C)cc1OCCCCCCCCCOc1ccc2ccc(=O)oc2c1 [Compound 57, 7-((9-(5-Isopropyl-2-methylphenoxy)nonyl)oxy)-2H-chromen-2-one]
IC50 (HT-29 cell line): > 200 µM

SMILES: C=CCc1ccc(OCCCCCCCCCCCCOc2ccc3ccc(=O)oc3c2)c(OC)c1 [Compound 67, 7-((12-(4-Allyl-2-methoxyphenoxy)dodecyl)oxy)-2H-chromen-2-one]
IC50 (HT-29 cell line): > 80 µM

SMILES: CC1CCC(C(C)C)C(OCCOc2ccc3ccc(=O)oc3c2)C1 (stereo not drawn) [Compound 68, 7-(2-((2-Isopropyl-5-methylcyclohexyl)oxy)ethoxy)-2H-chromen-2-one]
IC50 (HT-29 cell line): 40.7 ± 7.5 µM

SMILES: CC1CCC(C(C)C)C(OCCCCCCOc2ccc3ccc(=O)oc3c2)C1 (stereo not drawn) [Compound 71, 7-((6-((2-Isopropyl-5-methylcyclohexyl)oxy)hexyl)oxy)-2H-chromen-2-one]
IC50 (MCF-7 cell line): 30.7 ± 7.04 µM
IC50 (PC-3 cell line): 36 ± 9.49 µM
IC50 (HEK293T cell line): 56.6 ± 10.5 µM
IC50 (HT-29 cell line): 18.6 ± 3.39 µM

SMILES: COc1cccc2c1C(=O)c1c(O)c3c(c(O)c1C2=O)C[C@@](O)(C(=O)CO)C[C@@H]3O[C@H]1C[C@H](N)[C@H](O)[C@H](C)O1 [Dox, doxorubicin, reference compound]
IC50 (MCF-7 cell line): 0.64 ± 0.11 µM
IC50 (PC-3 cell line): 4.48 ± 1.08 µM
IC50 (HEK293T cell line): 2.03 ± 0.12 µM
IC50 (HT-29 cell line): 7.41 ± 1.9 µM
